The source of these data is patent US8519145B2, “Aryl compounds as PPAR ligands and their use” (Seoul National University Industry Foundation, priority 2006, dated 2013).

In experiment [1] the target is T1, hPPARα (Homo sapiens, UniProt Q07869).
T1 construct: Full length PPARs plasmid DNA; expressed in transfected cells; host or cells: CV-1 cells
T1 sequence (Q07869 1-468): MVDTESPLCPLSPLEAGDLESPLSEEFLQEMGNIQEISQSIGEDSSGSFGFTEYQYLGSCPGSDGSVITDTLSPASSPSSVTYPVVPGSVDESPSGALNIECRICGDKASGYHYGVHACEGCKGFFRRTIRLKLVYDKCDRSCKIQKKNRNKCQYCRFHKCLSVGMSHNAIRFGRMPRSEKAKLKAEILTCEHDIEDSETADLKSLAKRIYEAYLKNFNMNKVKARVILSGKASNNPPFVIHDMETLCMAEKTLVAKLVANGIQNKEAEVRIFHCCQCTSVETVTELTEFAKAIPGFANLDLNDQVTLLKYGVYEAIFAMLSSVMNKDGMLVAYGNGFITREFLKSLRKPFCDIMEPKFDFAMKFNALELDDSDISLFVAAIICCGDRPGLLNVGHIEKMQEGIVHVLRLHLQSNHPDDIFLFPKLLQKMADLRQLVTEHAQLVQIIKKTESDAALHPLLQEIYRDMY
Kind of experiment: Transfection assay (luciferase reporter), PPARα. The class given is cell-based. As to conditions: CV-1 cells, full length PPAR plasmid, 24 hours. As to the method:
(§1) The PPARδ activity of the compound represented by formula (I) of the present invention was confirmed by transfection assay. In addition, the selectivity to PPAR subtypes, PPARα and PPARγ was examined. Cytotoxicity was tested by MTT assay and in vivo activity was investigated by animal experiment.
(§2) CV-1 cells were used in this assay. The cells were inoculated in a 96-well plate containing DMEM supplemented with 10% FBS, DBS (delipidated) and 1% penicillin/streptomycin and cultured in a 37° C., 5% CO2 incubator. The experiment was performed according to the steps of inoculation, transfection, sample treatment and confirmation. Particularly, CV-1 cells were inoculated in a 96 well-plate (5000 cells/well), followed by transfection 24 hours later. Full length PPARs plasmid DNA, reporter DNA confirming PPARs activity owing to its luciferase activity, β-galactosidase DNA providing information on transfection efficiency, and transfection reagent were used for the transfection. Samples were dissolved in dimethylsulfoxide (DMSO), which were treated to the cells via media at different concentrations. After culturing the cells in the incubator for 24 hours, the cells were lysed by using lysis buffer. Luciferase activity and β-galactosidase activity were measured with Luminometer and a microplate reader. The obtained values of luciferase were modified by the values of β-galactosidase. A graph was made with those values and EC50 was calculated.

Experiment [2] has as its target T2, hPPARγ (Homo sapiens, UniProt P37231).
T2 construct: Full length PPARs plasmid DNA; expressed in transfected cells; host or cells: CV-1 cells
T2 sequence (P37231 1-505): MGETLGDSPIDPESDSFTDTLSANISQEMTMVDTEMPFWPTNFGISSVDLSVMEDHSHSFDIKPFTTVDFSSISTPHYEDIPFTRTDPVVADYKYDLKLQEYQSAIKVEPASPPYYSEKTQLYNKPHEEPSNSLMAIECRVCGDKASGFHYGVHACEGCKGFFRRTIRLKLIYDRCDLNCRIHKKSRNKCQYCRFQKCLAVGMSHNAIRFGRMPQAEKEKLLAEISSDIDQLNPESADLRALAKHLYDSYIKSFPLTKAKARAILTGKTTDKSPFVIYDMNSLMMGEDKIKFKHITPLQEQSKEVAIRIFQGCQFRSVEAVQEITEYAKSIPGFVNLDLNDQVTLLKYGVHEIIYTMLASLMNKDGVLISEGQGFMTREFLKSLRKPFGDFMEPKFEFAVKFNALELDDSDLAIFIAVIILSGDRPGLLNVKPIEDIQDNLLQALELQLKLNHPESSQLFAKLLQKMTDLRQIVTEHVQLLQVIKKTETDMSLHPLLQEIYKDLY
Nature of the experiment: Transfection assay (luciferase reporter), PPARγ. Particulars: CV-1 cells, full length PPAR plasmid, 24 hours. The experiment is classed as cell-based. As to the method: as §1, §2
A general note: A reporter such as luciferase makes a cellular process visible.

Experiment [3] can be described thus: Obesity inhibitory effect, high-fat feed mice. Particulars: 10 mg/kg/day oral, 60 days, feeds containing 35% fat. The class given is in vivo, C57BL/6 mice. As for the experimental part:
Obesity Inhibitory Effect
An animal test using mice was performed to confirm the in vivo effect of the compound of the present invention. C57BL/6 (SLC Co.) mice at 8 weeks were used. To induce obesity, feeds containing 35% fat were given. While feeding such high-fat feeds for 60 days, vehicle, S14, S46 and S106 (10 mg/kg/day) were orally administered.

Experiment [4] is described as follows: GTT (glucose tolerance test), diabetes improving effect. The class given is in vivo, mice. Particulars: 10 mg/Kg/day oral; for fasting blood glucose versus control: 57 days; for diabetes improving effect: GTT. As for the experimental part:
Diabetes Improving Effect
GTT (glucose tolerance test) was performed to confirm the diabetes improving effect of the compound of the present invention. Glucose (1.5 g/Kg) was intra-abdominally administered to the mice pre-treated orally with samples for 57 days. Blood glucose was measured every hour. Fasting blood glucose was lower in the S14, S46 and S106 (10 mg/Kg/day) treated groups than in control. […] In the meantime, the blood glucose level was not recovered to normal in the vehicle treated group even after 120 minutes.

Turning to `Cc1cc(SC(Cc2ccccc2)c2ccc(-c3ccc(C(F)(F)F)cc3)nc2)ccc1OCC(=O)O` (stereo not drawn) [Compound 106], the “EC50 hPPARα” value in experiment [1] was “ia”. The “EC50 hPPARγ” value in experiment [2] is on record as “ia”. Also, the “weight increase compared with the vehicle group” value (shortened to “weight increase”) in experiment [3] is 37%. For the same compound, in experiment [4], the “fasting blood glucose versus control” value is “lower” and the diabetes improving effect entry is “had diabetes improving effect”.

Turning to `Cc1cc(SC(Cc2ccccc2)c2ccc(-c3cc(F)c(F)c(F)c3)cc2)ccc1OCC(=O)O` (stereo not drawn) [Compound 46], the “EC50 hPPARα” value in experiment [1] is reported as “ia”. In addition, the “EC50 hPPARγ” value in experiment [2] is “ia”. Further, the “weight increase” value in experiment [3] was found to be 43%. In experiment [4], the “fasting blood glucose versus control” value was “lower” and the diabetes improving effect result is “had diabetes improving effect”.

For the compound `Cc1cc(SC(Cc2ccccc2)c2ccc(-c3ccc(C(F)(F)F)cc3)cc2)ccc1OCC(=O)O` (stereo not drawn) [Compound S14], the “EC50 hPPARα” value in experiment [1] is “ia”. Besides, the “EC50 hPPARγ” value in experiment [2] was “ia”. For the same compound, the “weight increase” value in experiment [3] is 31%. Moreover, in experiment [4], the “fasting blood glucose versus control” value is “lower” and the diabetes improving effect result is “had diabetes improving effect”.
